US7825217B2, “Polypeptides for bone mineralization” (University of Kansas Medical Center, priority 2006, dated 2010)
Non-standard residues stand in square brackets, D forms with d. Residues, ends and D or L forms follow the SMILES beside them. *: point of attachment. Biotin = O=C1N[C@H]2[C@H](CS[C@H]2CCCCC(=O)*)N1; pS = N[C@@H](COP(=O)(O)O)C(=O)O; Ahx = NCCCCCC(=O)O

Key:
PHEX = target: T1, PHEX (Homo sapiens, UniProt P78562); assay: Surface plasmon resonance: PHEX analyte binding to immobilized biotinylated ASARM-PO4; conditions: immobilized biotinylated ASARM-PO4, soluble PHEX analyte, FIG. 4(A); read-out: kinetics of binding
T1 sequence (P78562 46-749 limits assumed): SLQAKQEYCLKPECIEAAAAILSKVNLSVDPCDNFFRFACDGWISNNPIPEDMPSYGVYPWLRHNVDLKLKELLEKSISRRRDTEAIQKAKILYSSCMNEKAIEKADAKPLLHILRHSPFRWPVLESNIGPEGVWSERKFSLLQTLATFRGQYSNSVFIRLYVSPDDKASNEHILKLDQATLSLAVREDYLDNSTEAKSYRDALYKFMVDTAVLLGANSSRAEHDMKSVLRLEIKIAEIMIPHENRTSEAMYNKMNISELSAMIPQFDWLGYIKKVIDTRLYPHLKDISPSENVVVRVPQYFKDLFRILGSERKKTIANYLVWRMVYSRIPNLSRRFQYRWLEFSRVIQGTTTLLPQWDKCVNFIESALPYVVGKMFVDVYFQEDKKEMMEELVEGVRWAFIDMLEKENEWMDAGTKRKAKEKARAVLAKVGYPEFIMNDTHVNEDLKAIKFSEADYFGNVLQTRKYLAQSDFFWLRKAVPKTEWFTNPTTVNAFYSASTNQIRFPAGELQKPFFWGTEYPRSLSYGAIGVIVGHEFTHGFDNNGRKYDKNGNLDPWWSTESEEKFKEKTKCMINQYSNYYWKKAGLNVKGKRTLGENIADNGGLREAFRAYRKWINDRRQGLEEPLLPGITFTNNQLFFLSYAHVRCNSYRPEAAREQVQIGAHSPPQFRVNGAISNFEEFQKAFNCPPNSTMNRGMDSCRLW
Description: A Biacore 3000 SPR instrument in conjunction with CM5 research grade chips was used to conduct the surface Plasmon Resonance (SPR) experiments (Biacore, Piscataway, N.J.) as previously described (Rowe et al., Bone 36:33-46 (2005)). The experiments were performed at 25° C. using Biacore buffer (10 mM HEPES pH 7.4, 150 mM NaCl, 0.005% surfactant P20) supplemented with 2 mM ZnCl2 (HBS-P-Zn) or without ZnCl2 (HBS-P) as indicated. Samples were injected at a flow rate of 5 ul/min. The surfaces of research grade CM5 chips were activated by a 6-min. injection of a solution containing 0.2 M N-ethyl-N9-(dimethylaminopropyl) carbodiimide and 0.05 M N-hydroxy-succinimide. Neutravidin (Pierce) was then immobilized on the same chip (ligands) in all four flow-cells using amine coupling chemistry. One neutravidin surface was left blank as a negative control. Biotinylated peptides (including biotinylated ASARM-PO4 peptide) were then added and captured on other individual flow-cells. […] The experiments were repeated on two different chips and immobilized peptides measured as surface plasmon response units as previously described (Rowe et al., Bone 36:33-46 (2005)). The response unit or RU is a measure of surface charge density oscillation and surface […] generation as detected by changes in incident refractive index monitored by the Biacore optical unit. […]

[1] = tested on: Murine bone marrow stromal cell (BMSCs) cultures; assay: Bone marrow stromal cell mineralization assay (alizarin red staining); type: cell-based, mice
Description: The epiphyses of the bones from wild type (“WT”) and HYP mice were removed, and whole marrow was flushed from the diaphyses by centrifugation at 11500 rpm for 30 seconds in standard culture medium, which consisted of α-MEM (Mediatech Inc, Herndon Va., USA) supplemented with 10% FBS (Mediatech Inc, Herndon Va., USA), 10 U/ml penicillin/100 ug/ml streptomycin. The supernatant was removed, and the cell pellet was resuspended in fresh standard medium. The resuspended cells were plated in standard 25 cm^2 flasks and allowed to grow until confluence. The cells were passaged with 0.25% trypsin and 0.02% EDTA (Sigma Aldrich, Saint Louis, Mo., USA). Cells were plated on 24-well plastic culture plates at a concentration of 10×10^4 cells/well. Starting 72 hours after seeding (referred to as Day 0) nonadherent cells were discarded, and the medium was changed to one that supports osteoblast differentiation, that is, standard media plus 10 mM B glycerophosphate (Sigma Aldrich, Saint Louis, Mo., USA) and 50 mg/liter ascorbic acid (Sigma Aldrich, Saint Louis, Mo., USA). […] For quantification of staining, 500 μL 10% (v/v) acetic acid was added to each well, and the plate was incubated at room temperature for 30 min. with shaking. […] 150 μL aliquots of the supernatant were read in triplicate at 450 nm in 96-well format using opaque-walled, transparent-bottomed plates.

N=C(N)NCCC[C@H](NC(=O)CCCCCNC(=O)CCCC[C@@H]1SC[C@@H]2NC(=O)N[C@@H]21)C(=O)N[C@@H](CC(=O)O)C(=O)N[C@@H](CC(=O)O)C(=O)N[C@@H](CO)C(=O)N[C@@H](CO)C(=O)N[C@@H](CCC(=O)O)C(=O)N[C@@H](CO)C(=O)N[C@@H](CO)C(=O)N[C@@H](CC(=O)O)C(=O)N[C@@H](CO)C(=O)NCC(=O)N[C@@H](COP(=O)(O)O)C(=O)N[C@@H](CO)C(=O)N[C@@H](COP(=O)(O)O)C(=O)N[C@@H](CCC(=O)O)C(=O)N[C@@H](COP(=O)(O)O)C(=O)N[C@@H](CC(=O)O)C(=O)NCC(=O)N[C@@H](CC(=O)O)C(=O)O [biotinylated-ASARM-PO4] ({Biotin-Ahx}-RDDSSESSDSG[pS]S[pS]E[pS]DGD-OH)
Kd (PHEX): 168 nM

NH2-LKGDHSGGNGNYTGLDYNIPGYFRSTIPFHGEVDKENVAR-OH (H-LKGDHSGGNGNYTGLDYNIPGYFRSTIPFHGEVDKENVAR-OH; listed as Homo sapiens) [SPR5]
mineralization (alizarin red) ([1]; BMSC cultures supplemented with 10 μM peptide alone): mineralization occurs with great efficiency

NH2-RDDSSESSDSGS(PO3H2)SS(PO3H2)ES(PO3H2)DGD-OH (H-RDDSSESSDSG[pS]S[pS]E[pS]DGD-OH; listed as Homo sapiens) [ASARM-PO4]
mineralization (alizarin red) ([1]; BMSC cultures supplemented with 5 μM ASARM-PO4 alone): marked and statistically significant inhibition of mineralization
